Test results: the NIST ThermoML archive (doi:10.1016/j.fluid.2019.05.003)
± gives the expanded uncertainty stated by the source.

Experiment: xn = mol fraction of the nth substance listed
Conditions: 101 kPa, Liquid; for viscosity: Falling or rolling sphere viscometry; for mass density: Vibrating tube method

CC[N+]1(C)CCOCC1.[Br-] [N-ethyl-N-methylmorpholinium bromide] + O
Conditions	mass density [kg/m3]	viscosity [mPa·s]
298.15 K, x1 = 0.023	1062.6 ± 0.5	1.197 ± 0.072
298.15 K, x1 = 0.045	1111.8 ± 0.5	1.56 ± 0.094
298.15 K, x1 = 0.07	1156 ± 0.4	2.228 ± 0.14
298.15 K, x1 = 0.1	1197.3 ± 0.4	3.5 ± 0.21
298.15 K, x1 = 0.128	1227 ± 0.3	5.195 ± 0.32
298.15 K, x1 = 0.16	1254.9 ± 0.4	8.371 ± 0.51
298.15 K, x1 = 0.192	1278.3 ± 0.4	13.81 ± 0.84
298.15 K, x1 = 0.22	1295.2 ± 0.4	22.13 ± 1.3
298.15 K, x1 = 0.252	1311.3 ± 0.5	37.25 ± 2.3
303.15 K, x1 = 0.023	1060.7 ± 0.5	1.06 ± 0.064
303.15 K, x1 = 0.045	1109.6 ± 0.5	1.391 ± 0.084
303.15 K, x1 = 0.07	1153.6 ± 0.4	1.983 ± 0.12
303.15 K, x1 = 0.1	1194.6 ± 0.4	3.126 ± 0.19
303.15 K, x1 = 0.128	1224.2 ± 0.3	4.423 ± 0.27
303.15 K, x1 = 0.16	1252 ± 0.4	7.156 ± 0.43
303.15 K, x1 = 0.192	1275.3 ± 0.4	11.53 ± 0.7
303.15 K, x1 = 0.22	1292.1 ± 0.4	18.2 ± 1.1
303.15 K, x1 = 0.252	1308.2 ± 0.5	29.81 ± 1.8
308.15 K, x1 = 0.023	1058.6 ± 0.5	0.961 ± 0.058
308.15 K, x1 = 0.045	1107.3 ± 0.5	1.254 ± 0.076
308.15 K, x1 = 0.07	1151 ± 0.4	1.778 ± 0.11
308.15 K, x1 = 0.1	1191.8 ± 0.4	2.816 ± 0.17
308.15 K, x1 = 0.128	1221.3 ± 0.3	3.944 ± 0.24
308.15 K, x1 = 0.16	1249 ± 0.4	6.192 ± 0.38
308.15 K, x1 = 0.192	1272.3 ± 0.4	9.829 ± 0.6
308.15 K, x1 = 0.22	1289 ± 0.4	15.03 ± 0.91
308.15 K, x1 = 0.252	1305 ± 0.5	24.22 ± 1.5
313.15 K, x1 = 0.023	1056.3 ± 0.5	0.876 ± 0.053
313.15 K, x1 = 0.045	1104.8 ± 0.5	1.136 ± 0.069
313.15 K, x1 = 0.07	1148.3 ± 0.4	1.566 ± 0.095
313.15 K, x1 = 0.1	1189 ± 0.4	2.543 ± 0.15
313.15 K, x1 = 0.128	1218.4 ± 0.3	3.485 ± 0.21
313.15 K, x1 = 0.16	1246 ± 0.4	5.438 ± 0.33
313.15 K, x1 = 0.192	1269.2 ± 0.4	8.443 ± 0.51
313.15 K, x1 = 0.22	1285.9 ± 0.4	12.5 ± 0.76
313.15 K, x1 = 0.252	1301.9 ± 0.5	19.81 ± 1.2
318.15 K, x1 = 0.023	1053.7 ± 0.5	0.805 ± 0.049
318.15 K, x1 = 0.045	1102.2 ± 0.5	1.037 ± 0.063
318.15 K, x1 = 0.07	1145.6 ± 0.4	1.45 ± 0.088
318.15 K, x1 = 0.1	1186.1 ± 0.4	2.291 ± 0.14
318.15 K, x1 = 0.128	1215.4 ± 0.3	3.1 ± 0.19
318.15 K, x1 = 0.16	1243 ± 0.3	4.738 ± 0.29
318.15 K, x1 = 0.192	1266.1 ± 0.4	7.253 ± 0.44
318.15 K, x1 = 0.22	1282.8 ± 0.4	10.46 ± 0.63
318.15 K, x1 = 0.252	1298.7 ± 0.4	16.49 ± 1
323.15 K, x1 = 0.023	1051.7 ± 0.5	0.756 ± 0.046
323.15 K, x1 = 0.045	1099.6 ± 0.4	0.953 ± 0.058
323.15 K, x1 = 0.07	1142.8 ± 0.4	1.328 ± 0.08
323.15 K, x1 = 0.1	1183.2 ± 0.4	2.098 ± 0.13
323.15 K, x1 = 0.128	1212.4 ± 0.3	2.776 ± 0.17
323.15 K, x1 = 0.16	1239.9 ± 0.3	4.235 ± 0.26
323.15 K, x1 = 0.192	1263 ± 0.4	6.32 ± 0.38
323.15 K, x1 = 0.22	1279.7 ± 0.4	8.952 ± 0.54
323.15 K, x1 = 0.252	1295.6 ± 0.4	13.88 ± 0.84
328.15 K, x1 = 0.023	1049.5 ± 0.5	0.717 ± 0.043
328.15 K, x1 = 0.045	1097.1 ± 0.4	0.879 ± 0.053
328.15 K, x1 = 0.07	1139.8 ± 0.4	1.22 ± 0.074
328.15 K, x1 = 0.1	1180.2 ± 0.4	1.908 ± 0.12
328.15 K, x1 = 0.128	1209.4 ± 0.3	2.493 ± 0.15
328.15 K, x1 = 0.16	1236.8 ± 0.3	3.696 ± 0.22
328.15 K, x1 = 0.192	1259.9 ± 0.4	5.528 ± 0.34
328.15 K, x1 = 0.22	1276.5 ± 0.4	7.778 ± 0.47
328.15 K, x1 = 0.252	1292.4 ± 0.4	11.84 ± 0.72
333.15 K, x1 = 0.023	1047.3 ± 0.5	0.638 ± 0.039
333.15 K, x1 = 0.045	1094.6 ± 0.4	0.813 ± 0.049
333.15 K, x1 = 0.07	1137.3 ± 0.4	1.123 ± 0.068
333.15 K, x1 = 0.1	1177.3 ± 0.4	1.748 ± 0.11
333.15 K, x1 = 0.128	1206.3 ± 0.3	2.263 ± 0.14
333.15 K, x1 = 0.16	1233.7 ± 0.3	3.324 ± 0.2
333.15 K, x1 = 0.192	1256.7 ± 0.4	4.903 ± 0.3
333.15 K, x1 = 0.22	1273.3 ± 0.4	6.702 ± 0.41
333.15 K, x1 = 0.252	1289.2 ± 0.4	10.27 ± 0.62
338.15 K, x1 = 0.023	1045.1 ± 0.5	0.624 ± 0.038
338.15 K, x1 = 0.045	1092.1 ± 0.4	0.764 ± 0.046
338.15 K, x1 = 0.07	1134.6 ± 0.4	1.051 ± 0.064
338.15 K, x1 = 0.1	1174.6 ± 0.3	1.626 ± 0.098
338.15 K, x1 = 0.128	1203.2 ± 0.3	2.058 ± 0.12
338.15 K, x1 = 0.16	1230.5 ± 0.3	2.988 ± 0.18
338.15 K, x1 = 0.192	1253.5 ± 0.4	4.274 ± 0.26
338.15 K, x1 = 0.22	1270.1 ± 0.4	5.649 ± 0.34
338.15 K, x1 = 0.252	1286 ± 0.4	8.914 ± 0.54
343.15 K, x1 = 0.023	1042.8 ± 0.5	0.579 ± 0.035
343.15 K, x1 = 0.045	1089.6 ± 0.4	0.716 ± 0.043
343.15 K, x1 = 0.07	1131.9 ± 0.4	0.97 ± 0.059
343.15 K, x1 = 0.1	1171.7 ± 0.3	1.49 ± 0.09
343.15 K, x1 = 0.128	1200 ± 0.3	1.882 ± 0.11
343.15 K, x1 = 0.16	1227.3 ± 0.3	2.726 ± 0.17
343.15 K, x1 = 0.192	1250.3 ± 0.4	3.874 ± 0.23
343.15 K, x1 = 0.22	1266.9 ± 0.4	5.218 ± 0.32
343.15 K, x1 = 0.252	1282.7 ± 0.4	7.822 ± 0.47
348.15 K, x1 = 0.023	1040.6 ± 0.5	0.551 ± 0.033
348.15 K, x1 = 0.045	1087.2 ± 0.4	0.675 ± 0.041
348.15 K, x1 = 0.07	1129.2 ± 0.4	0.901 ± 0.055
348.15 K, x1 = 0.1	1168.8 ± 0.3	1.357 ± 0.082
348.15 K, x1 = 0.128	1196.7 ± 0.3	1.733 ± 0.11
348.15 K, x1 = 0.16	1224.1 ± 0.3	2.517 ± 0.15
348.15 K, x1 = 0.192	1247.1 ± 0.4	3.514 ± 0.21
348.15 K, x1 = 0.22	1263.6 ± 0.4	4.632 ± 0.28
348.15 K, x1 = 0.252	1279.5 ± 0.4	6.907 ± 0.42
